From ChEMBL document CHEMBL5506038, “Discovery of LC-MI-3: A Potent and Orally Bioavailable Degrader of Interleukin-1 Receptor-Associated Kinase 4 for the Treatment of Inflammatory Diseases” (J Med Chem, 2024) come the findings set out here.

Active and inactive are the calls of the source.

By Tmax is commonly meant the time at which the peak concentration occurs. What is called AUC(0-inf) is total exposure, with the tail of the curve extrapolated. Usually half-life stands for the time needed for the level to fall by half in the phase considered. A word on the bioavailability: it is dose-corrected exposure relative to a reference, in per cent. As a reminder, the Cmax is the maximum level reached in the sampled fluid or tissue.

Data set [1] has as its target Zinc finger protein Aiolos (Homo sapiens) (UniProt Q9UKT9). The experiment in a line: Induction of IKZF3 degradation in human THP-1 cells upto 10000 nM incubated for 12 hrs by Western blotting analysis. Type of data set: cell-based. For orientation: Immunoblotting shows a protein as a band on a membrane.
For data set [2], the system named is RAW264.7. The experiment in a line: Activation of NF-kappaB pathway in LPS-induced mouse RAW264.7 cells expressing EGFP at 5 uM pretreated with compound for 1 hr followed by LPS-induction and measured after 6 hrs by flow cytometry analysis. Type of data set: cell-based. To be noted: filed as activator, time 7.0 hrs. (In general: Flow cytometry measures light scatter and fluorescence of single cells or particles in a stream.)

Data set [3] can be described thus: Tmax in Sprague-Dawley rat at 2 mg/kg, iv by LC-MS/MS analysis. Type of data set: ADME, organism-based. Conditions: in vivo.
The nature of data set [4]: AUC (0 to infinity) in Sprague-Dawley rat at 20 mg/kg, po by LC-MS/MS analysis. Type of data set: ADME, organism-based. Conditions: in vivo.
Data set [5] concerns the target Protein cereblon/Interleukin-1 receptor-associated kinase 4 (Mus musculus, UniProt Q8C7D2+Q8R4K2). The data set is described as follows: PROTAC activity at IRAK4/CRBN in mouse RAW264.7 cells assessed as reduction in IRAK4 level incubated for 12 hrs by Western blot analysis. Type of data set: cell-based.
Data set [6] has as its system RAW264.7. The experiment in a line: Effect on TNFalpha mRNA expression in LPS-induced mouse RAW264.7 cells at 1 uM pretreated with compound for 1 hr followed by LPS-induction and measured after 6 hrs by RT-PCR analysis. Type of data set: functional, cell-based. To be noted: time 7.0 hrs.
Data set [7] is described as follows: Half life in Sprague-Dawley rat at 20 mg/kg, po by LC-MS/MS analysis. Type of data set: ADME, organism-based. Conditions: in vivo.
Data set [8] can be described thus: Half life in Sprague-Dawley rat at 2 mg/kg, iv by LC-MS/MS analysis. Type of data set: ADME, organism-based. Conditions: in vivo.
Data set [9] concerns Mus musculus. The data set is described as follows: Anti-inflammatory activity in imiquimod-induced C57BL/6 mouse psoriasis model assessed as […] in skin thickness at 20 mg/kg, po administered twice daily measured on day 7 by H and E staining based analysis. Type of data set: functional, organism-based. Conditions: time 7.0 day.
Data set [10] can be described thus: Oral bioavailability in Sprague-Dawley rat at 20 mg/kg by LC-MS/MS analysis. Type of data set: ADME, organism-based. To be noted: in vivo.
For data set [11], the system named is Mus musculus. The experiment in a line: Anti-inflammatory activity against LPS-induced acute […] injury C57BL/6 mouse model assessed as reduction in F4/80-positive macrophage in lung at 20 mg/kg, IG pretreated with compound for 12 hrs followed by LPS-induction and measured after 6 hrs by Immunohistochemical analysis. Type of data set: functional, organism-based. To be noted: time 18.0 hrs.

Data set [12] relates to Mus musculus. The experiment in a line: Anti-inflammatory activity in imiquimod-induced C57BL/6 mouse psoriasis model assessed as reduction in keratinocyte proliferation at 20 mg/kg, po administered twice daily measured for 6 days by H and E staining based analysis. To be noted: time 6.0 day. Type of data set: functional, organism-based.
Data set [13] deals with Mus musculus. The data set is described as follows: Protection against LPS-induced sepsis in C57BL/6 mouse model assessed as improvement in survival rate at 20 mg/kg, IG measured at 12 hrs. Type of data set: functional, organism-based.
In data set [14] the target is T1, Interleukin-1 receptor-associated kinase 4 (Homo sapiens) (UniProt Q9NWZ3).
T1 sequence (whole entry): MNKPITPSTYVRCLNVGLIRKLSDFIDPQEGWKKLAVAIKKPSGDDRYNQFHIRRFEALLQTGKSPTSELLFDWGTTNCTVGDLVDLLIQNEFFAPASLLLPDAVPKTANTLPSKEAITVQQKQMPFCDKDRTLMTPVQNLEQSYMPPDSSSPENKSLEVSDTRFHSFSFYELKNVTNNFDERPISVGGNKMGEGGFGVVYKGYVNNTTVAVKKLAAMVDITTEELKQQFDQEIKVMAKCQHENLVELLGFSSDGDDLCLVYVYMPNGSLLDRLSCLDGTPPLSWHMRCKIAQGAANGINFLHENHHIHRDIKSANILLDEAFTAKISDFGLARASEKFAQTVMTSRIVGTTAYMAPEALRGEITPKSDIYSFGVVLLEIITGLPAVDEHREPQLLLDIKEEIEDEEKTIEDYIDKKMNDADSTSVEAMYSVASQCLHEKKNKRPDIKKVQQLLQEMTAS
The data set is described as follows: Inhibition of IRAK4 in human BMDM cells assessed as decrease in TLR4 endocytosis by flow cytometry analysis. Type of data set: cell-based.

Data set [15] addresses T2, Protein cereblon/Interleukin-1 receptor-associated kinase 4 (Mus musculus) (UniProt Q8C7D2+Q8R4K2). The data set is described as follows: PROTAC activity at IRAK4/CRBN in mouse RAW264.7 cells assessed as induction of IRAK4 degradation at 25 to 2500 nM incubated for 12 hrs by Western blot analysis. Type of data set: cell-based. Conditions: dose 25-2500 nM.
The test system of data set [16] is RAW264.7. The data set is described as follows: Protection against Escherichia coli-induced sepsis in mouse RAW264.7 cells assessed as reduction in IL-6 level at 1 uM pretreated with compound for 6 hrs followed by Escherichia coli-induction and measured after 6 hrs by RT-PCR analysis. Type of data set: functional, cell-based. To be noted: time 12.0 hrs.
A short description of data set [17]: Toxicity in C57BL/6 mouse assessed as lung damage at 20 mg/kg, IG by H and E staining based analysis. Type of data set: organism-based. To be noted: in vivo, po.
Data set [18] in a line: Tmax in Sprague-Dawley rat at 20 mg/kg, po by LC-MS/MS analysis. To be noted: in vivo. Type of data set: ADME, organism-based.
The target of data set [19] is T2, Protein cereblon/Interleukin-1 receptor-associated kinase 4 (Mus musculus). The experiment in a line: PROTAC activity at IRAK4/CRBN in mouse BaF3 cells assessed as reduction in IRAK4 level at 100 nM incubated for 12 hrs by Western blot analysis relative to control. Type of data set: cell-based. Details: scale not given: the % may be the effect or the level left.

Data set [20] deals with Sal-like protein 4 (Homo sapiens) (UniProt Q9UJQ4). The experiment in a line: Induction of SALL4 degradation in human THP-1 cells upto 10000 nM incubated for 12 hrs by Western blotting analysis. Type of data set: cell-based.
Sequence of Sal-like protein 4 (Homo sapiens) (Q9UJQ4 whole entry): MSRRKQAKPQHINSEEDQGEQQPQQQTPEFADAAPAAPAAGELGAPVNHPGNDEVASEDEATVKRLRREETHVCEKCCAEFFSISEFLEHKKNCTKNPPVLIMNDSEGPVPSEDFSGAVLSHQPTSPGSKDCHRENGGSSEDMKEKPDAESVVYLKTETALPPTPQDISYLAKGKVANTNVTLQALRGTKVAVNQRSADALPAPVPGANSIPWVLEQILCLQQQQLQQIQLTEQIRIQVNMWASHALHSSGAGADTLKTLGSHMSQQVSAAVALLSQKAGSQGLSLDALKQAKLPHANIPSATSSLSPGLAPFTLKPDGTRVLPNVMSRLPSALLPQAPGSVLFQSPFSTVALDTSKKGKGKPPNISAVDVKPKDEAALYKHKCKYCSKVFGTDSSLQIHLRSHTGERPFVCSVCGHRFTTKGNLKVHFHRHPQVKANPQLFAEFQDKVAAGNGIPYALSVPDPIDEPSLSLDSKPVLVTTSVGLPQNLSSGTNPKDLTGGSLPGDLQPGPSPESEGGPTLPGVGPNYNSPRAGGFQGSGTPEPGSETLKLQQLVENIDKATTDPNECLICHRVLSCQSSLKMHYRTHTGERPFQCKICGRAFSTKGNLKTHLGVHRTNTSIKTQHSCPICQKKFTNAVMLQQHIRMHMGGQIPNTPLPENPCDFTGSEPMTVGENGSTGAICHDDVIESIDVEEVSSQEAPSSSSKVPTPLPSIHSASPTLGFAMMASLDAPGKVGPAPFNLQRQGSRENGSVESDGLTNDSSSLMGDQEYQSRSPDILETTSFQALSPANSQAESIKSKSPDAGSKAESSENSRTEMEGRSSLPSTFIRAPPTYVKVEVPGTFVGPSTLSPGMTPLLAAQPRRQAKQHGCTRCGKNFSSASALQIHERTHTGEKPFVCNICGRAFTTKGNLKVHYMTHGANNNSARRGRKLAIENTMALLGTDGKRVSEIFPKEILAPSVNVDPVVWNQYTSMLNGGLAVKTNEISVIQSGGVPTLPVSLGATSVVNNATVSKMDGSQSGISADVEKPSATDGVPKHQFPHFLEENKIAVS
The subject of data set [21] is Mus musculus. The experiment in a line: Anti-inflammatory activity against LPS-induced acute […] injury C57BL/6 mouse model assessed as reduction in IL-6 level in BALF at 20 mg/kg, IG pretreated with compound for 12 hrs followed by LPS-induction and measured after 6 hrs by ELISA analysis. Type of data set: functional, organism-based. To be noted: time 18.0 hrs. A general note: In an ELISA, binding on a coated surface is turned into a signal by an enzyme label.

The nature of data set [22]: Cmax in Sprague-Dawley rat at 2 mg/kg, iv by LC-MS/MS analysis. Type of data set: ADME, organism-based. To be noted: in vivo.

T2 sequence (Q8C7D2 whole entry, looked up): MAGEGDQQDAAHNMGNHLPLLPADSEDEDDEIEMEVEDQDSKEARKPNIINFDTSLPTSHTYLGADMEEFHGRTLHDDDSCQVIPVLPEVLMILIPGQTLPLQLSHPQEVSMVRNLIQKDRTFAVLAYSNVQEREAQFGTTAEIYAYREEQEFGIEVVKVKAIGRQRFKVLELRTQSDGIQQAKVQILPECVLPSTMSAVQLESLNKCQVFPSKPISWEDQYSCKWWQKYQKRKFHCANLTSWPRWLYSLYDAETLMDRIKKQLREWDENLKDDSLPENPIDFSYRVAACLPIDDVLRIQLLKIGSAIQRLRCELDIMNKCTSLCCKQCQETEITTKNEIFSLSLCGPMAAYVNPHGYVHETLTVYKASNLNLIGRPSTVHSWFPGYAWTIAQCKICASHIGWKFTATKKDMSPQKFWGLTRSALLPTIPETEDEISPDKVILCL
T2 sequence (Q8R4K2 whole entry, looked up): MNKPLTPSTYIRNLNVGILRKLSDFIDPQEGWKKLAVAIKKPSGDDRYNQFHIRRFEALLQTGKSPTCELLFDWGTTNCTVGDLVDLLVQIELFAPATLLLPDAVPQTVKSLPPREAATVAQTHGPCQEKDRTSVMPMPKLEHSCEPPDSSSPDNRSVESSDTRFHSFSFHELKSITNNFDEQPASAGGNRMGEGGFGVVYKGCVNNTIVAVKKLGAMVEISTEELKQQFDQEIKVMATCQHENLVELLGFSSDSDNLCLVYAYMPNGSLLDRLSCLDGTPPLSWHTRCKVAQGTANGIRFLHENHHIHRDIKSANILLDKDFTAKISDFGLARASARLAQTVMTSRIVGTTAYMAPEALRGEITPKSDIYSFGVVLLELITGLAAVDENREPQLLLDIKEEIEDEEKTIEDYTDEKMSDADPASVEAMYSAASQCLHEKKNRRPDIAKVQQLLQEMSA
Sequence of Protein cereblon/Interleukin-1 receptor-associated kinase 4 (Q8C7D2 whole entry): as the sequence (Q8C7D2 whole entry, looked up) above
Sequence of Protein cereblon/Interleukin-1 receptor-associated kinase 4 (Q8R4K2 whole entry): as the sequence (Q8R4K2 whole entry, looked up) above
Sequence of Zinc finger protein Aiolos (Homo sapiens) (Q9UKT9 whole entry): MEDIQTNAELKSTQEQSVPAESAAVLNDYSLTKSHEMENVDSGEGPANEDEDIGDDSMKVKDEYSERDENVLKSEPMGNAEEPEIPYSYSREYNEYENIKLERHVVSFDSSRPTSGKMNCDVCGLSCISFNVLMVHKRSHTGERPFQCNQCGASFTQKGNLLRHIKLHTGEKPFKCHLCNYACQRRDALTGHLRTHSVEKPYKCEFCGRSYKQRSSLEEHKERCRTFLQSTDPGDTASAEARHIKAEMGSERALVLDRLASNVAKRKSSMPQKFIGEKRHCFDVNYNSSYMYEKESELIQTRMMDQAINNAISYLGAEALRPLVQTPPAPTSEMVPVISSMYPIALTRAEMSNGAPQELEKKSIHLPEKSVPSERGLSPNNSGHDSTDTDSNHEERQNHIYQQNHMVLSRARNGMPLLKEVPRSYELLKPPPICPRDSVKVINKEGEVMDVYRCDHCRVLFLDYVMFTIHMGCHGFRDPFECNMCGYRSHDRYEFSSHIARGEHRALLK

For `COc1cc(N2CCN(C(=O)CCOCC#Cc3ccc4c(c3)C(=O)N(C3CCC(=O)NC3=O)C4=O)CC2)ccc1NC(=O)c1cccc(-c2ccn[nH]2)n1` (configuration not stated), the outcome in [1], in data set [15] and in data set [20] was inactive. In addition, the result with RAW264.7 [2], in the data set with RAW264.7 [6], in the data set with Mus musculus [9], with Mus musculus [11], in the data set on Mus musculus [12] and with Mus musculus [13] was Active. Moreover, the result in the data set with RAW264.7 [16] and in the data set on Mus musculus [21] was Active. The Tmax was found to be 4.98 min in data set [3] and 30 min in data set [18]. Also, the AUC(0-inf) in data set [4] was 1080 ng·h/mL. The DC50 in data set [5] came out at 47.4 nM. Also, the half-life is 87.2 min in data set [7] and 29.2 min in [8]. Besides, in [10], the bioavailability was found to be 8.15%. Also, in [14], the inhibition entry was “Active”. Besides, the Activity result was “Non-Toxic” in [17] and 15% in data set [19]. The peak level in data set [22] (Cmax) was 2920 ng/mL.
